Our source for the IC50 values is BindingDB's records for doi:10.1021/jm801490z (Nantong University, 2021).

In general, IC50 refers to the concentration that gives 50% inhibition. A higher IC50 goes with a need for much substance.

Experiment [1] has as its target T1, Replicase polyprotein 1ab (Severe acute respiratory syndrome coronavirus 2, UniProt P0DTD1). Description: Inhibition of SARS-CoV-2 Main protease (3264 to 3569 residues) expressed in Escherichia coli BL21-Gold (DE3) using Dabcyl-KTSAVLQSGFRKM-E(Edans)-NH2 as substrate by FRET assay.
Experiment [2] deals with T1, Replicase polyprotein 1ab. Kind of experiment: Inhibition of SARS-CoV-2 3CL protease expressed in Escherichia coli using Dabcyl-KTSAVLQSGFRKM-E(Edans)-NH2 as substrate preincubated for 30 mins followed by substrate addition and measured after 3 hrs.

Structures are written as SMILES.

For the compound `CC(C)(C)OC(=O)Nc1ccn([C@@H](CC2CC2)C(=O)N[C@@H](C[C@@H]2CCNC2=O)C(=O)C(=O)NCc2ccccc2)c(=O)c1`, in experiment [1], the midpoint of inhibition, the IC50, lay at 670 nM.

In experiment [2], `Cn1nc(-c2ccc(C(F)(F)F)cc2)nc2c(=O)n(C)c(=O)cc1-2` displayed an IC50 of 260 nM. This lies in the sub-micromolar range.
